Laboratory results as given in ChEMBL document CHEMBL3525902, “In vitro metabolism of oxymetazoline: evidence for bioactivation to a reactive metabolite” (Drug Metab Dispos, 2011).

Tests used:
[1] = Retention time of the compound at 50 uM by LC-MS/MS method; format: physicochemical
Liver microsome [2] = experiment: Drug metabolism in NADPH supplemented human liver microsomes fraction assessed as 3-((1H-imidazol-2-yl)methyl)-6-tert-butyl-2,4-dimethylphenol formation at 50 uM after 1 hr by LC-MS/MS method; format: ADME
Cytochrome P450 2E1 = Cytochrome P450 2E1 (Homo sapiens, UniProt P05181); experiment: Activity of human recombinant CYP2E1 assessed as metabolite formation at 50 uM in presence of NADPH by LC-MS/MS method; format: ADME; details: recombinant enzyme
Chain of Cytochrome P450 2E1 (P05181 whole entry): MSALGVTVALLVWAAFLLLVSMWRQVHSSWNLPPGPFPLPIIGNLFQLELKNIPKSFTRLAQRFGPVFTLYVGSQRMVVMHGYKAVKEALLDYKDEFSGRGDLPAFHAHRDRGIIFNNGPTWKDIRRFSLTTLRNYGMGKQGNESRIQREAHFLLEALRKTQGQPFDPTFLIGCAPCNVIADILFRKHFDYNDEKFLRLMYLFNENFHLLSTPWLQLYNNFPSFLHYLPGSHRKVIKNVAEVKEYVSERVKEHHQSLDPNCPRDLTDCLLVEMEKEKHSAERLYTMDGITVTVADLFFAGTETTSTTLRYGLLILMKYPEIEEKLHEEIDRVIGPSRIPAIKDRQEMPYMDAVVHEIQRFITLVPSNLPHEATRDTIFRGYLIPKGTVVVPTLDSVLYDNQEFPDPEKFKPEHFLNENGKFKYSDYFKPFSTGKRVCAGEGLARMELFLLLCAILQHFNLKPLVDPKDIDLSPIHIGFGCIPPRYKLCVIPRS

Cytochrome P450 2C19 [3] = target: T1, Cytochrome P450 2C19 (Homo sapiens, UniProt P33261); experiment: Activity of human recombinant CYP2C19 assessed as (S)-2-amino-5-((R)-3-(5-tert-butyl-2-((4,5-dihydro-1H-imidazol-2-yl)methyl)-4-hydroxy-3-methylbenzylthio)-1-(carboxymethylamino)-1-oxopropan-2-ylamino)-5-oxopentanoic acid formation at 50 uM in presence of NADPH and glutathione by LC-MS/MS method; format: ADME; details: recombinant enzyme
T1 sequence (P33261 whole entry): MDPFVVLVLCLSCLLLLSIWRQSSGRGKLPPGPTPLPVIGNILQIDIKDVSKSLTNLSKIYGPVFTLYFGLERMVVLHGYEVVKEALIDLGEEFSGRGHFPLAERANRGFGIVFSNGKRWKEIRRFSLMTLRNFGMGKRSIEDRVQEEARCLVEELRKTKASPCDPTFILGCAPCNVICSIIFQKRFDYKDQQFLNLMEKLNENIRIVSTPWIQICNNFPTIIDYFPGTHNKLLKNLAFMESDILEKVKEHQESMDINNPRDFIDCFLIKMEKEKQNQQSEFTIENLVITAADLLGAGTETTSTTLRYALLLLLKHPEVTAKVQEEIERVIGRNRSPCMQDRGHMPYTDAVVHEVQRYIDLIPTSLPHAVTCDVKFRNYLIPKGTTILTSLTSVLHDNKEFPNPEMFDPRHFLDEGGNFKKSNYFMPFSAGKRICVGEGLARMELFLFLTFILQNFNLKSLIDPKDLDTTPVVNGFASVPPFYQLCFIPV

[4] = Drug metabolism in NADPH supplemented rabbit liver S9 fraction assessed as 3-((4,5-dihydro-1H-imidazol-2-yl)methyl)-6-(1-hydroxy-2-methylpropan-2-yl)-2,4-dimethylphenol formation at 50 uM in presence of glutathione by LC-MS/MS method; format: ADME, subcellular, Oryctolagus cuniculus; details: s9, 50 µM
[5] = Drug metabolism in NADPH supplemented rabbit liver microsomes fraction assessed as 3-((4,5-dihydro-1H-imidazol-2-yl)methyl)-6-(1-hydroxy-2-methylpropan-2-yl)-2,4-dimethylphenol formation at 50 uM after 1 hr by LC-MS/MS method; format: ADME, Oryctolagus cuniculus
Cytochrome P450 2C19 [6] = target: T1, Cytochrome P450 2C19; experiment: Activity of human recombinant CYP2C19 assessed as 3-((1H-imidazol-2-yl)methyl)-6-(1-hydroxy-2-methylpropan-2-yl)-2,4-dimethylphenol formation at 50 uM in presence of NADPH by LC-MS/MS method; format: ADME; details: recombinant enzyme
[7] = Drug metabolism in NADPH supplemented rabbit liver microsomes fraction assessed as 3-((1H-imidazol-2-yl)methyl)-6-(1-hydroxy-2-methylpropan-2-yl)-2,4-dimethylphenol formation at 50 uM after 1 hr by LC-MS/MS method; format: ADME, Oryctolagus cuniculus
[8] = Drug metabolism in NADPH supplemented rabbit liver S9 fraction assessed as 3-((1H-imidazol-2-yl)methyl)-6-tert-butyl-2,4-dimethylphenol formation at 50 uM in presence of N-acetyl cysteine by LC-MS/MS method; format: ADME, subcellular, Oryctolagus cuniculus; details: s9, 50 µM
Cytochrome P450 2C8 = target: T2, Cytochrome P450 2C8 (Homo sapiens, UniProt P10632); experiment: Activity of human recombinant CYP2C8 assessed as metabolite formation at 50 uM in presence of NADPH by LC-MS/MS method; format: ADME; details: recombinant enzyme
T2 sequence (P10632 whole entry): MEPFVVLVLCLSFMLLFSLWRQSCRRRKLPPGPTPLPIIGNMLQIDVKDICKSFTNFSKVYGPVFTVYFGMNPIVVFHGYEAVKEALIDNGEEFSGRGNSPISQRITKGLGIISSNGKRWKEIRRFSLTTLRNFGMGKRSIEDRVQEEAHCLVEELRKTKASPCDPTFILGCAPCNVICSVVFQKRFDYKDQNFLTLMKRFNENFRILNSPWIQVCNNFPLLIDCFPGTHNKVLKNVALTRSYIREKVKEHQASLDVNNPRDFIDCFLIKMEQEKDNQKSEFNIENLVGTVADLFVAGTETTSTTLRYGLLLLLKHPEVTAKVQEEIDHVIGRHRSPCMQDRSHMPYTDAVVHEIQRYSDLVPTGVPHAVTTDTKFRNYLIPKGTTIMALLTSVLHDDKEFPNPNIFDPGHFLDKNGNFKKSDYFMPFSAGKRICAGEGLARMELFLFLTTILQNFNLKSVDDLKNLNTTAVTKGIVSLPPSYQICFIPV

Cytochrome P450 1A2 = target: T3, Cytochrome P450 1A2 (Homo sapiens, UniProt P05177); experiment: Activity of human recombinant CYP1A2 assessed as metabolite formation at 50 uM in presence of NADPH by LC-MS/MS method; format: ADME; details: recombinant enzyme
T3 sequence (P05177 whole entry): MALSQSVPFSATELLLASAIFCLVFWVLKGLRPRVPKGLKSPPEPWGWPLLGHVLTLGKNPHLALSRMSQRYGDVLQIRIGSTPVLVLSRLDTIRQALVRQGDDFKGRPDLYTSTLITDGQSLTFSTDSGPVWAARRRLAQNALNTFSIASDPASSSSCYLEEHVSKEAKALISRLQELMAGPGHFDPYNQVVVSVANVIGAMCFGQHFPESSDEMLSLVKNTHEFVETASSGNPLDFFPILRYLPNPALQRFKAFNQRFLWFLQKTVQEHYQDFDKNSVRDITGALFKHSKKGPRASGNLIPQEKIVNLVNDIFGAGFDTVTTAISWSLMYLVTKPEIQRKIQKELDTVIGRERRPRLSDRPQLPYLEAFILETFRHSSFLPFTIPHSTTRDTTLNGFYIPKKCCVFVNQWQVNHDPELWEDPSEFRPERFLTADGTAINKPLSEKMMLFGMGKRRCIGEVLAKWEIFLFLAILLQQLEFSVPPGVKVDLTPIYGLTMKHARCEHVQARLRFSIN

Liver microsome [9] = experiment: Drug metabolism in NADPH supplemented human liver microsomes fraction assessed as 3-((4,5-dihydro-1H-imidazol-2-yl)methyl)-6-(1-hydroxy-2-methylpropan-2-yl)-2,4-dimethylphenol formation at 50 uM after 1 hr by LC-MS/MS method; format: ADME
Cytochrome P450 2D6 = Cytochrome P450 2D6 (Homo sapiens, UniProt P10635); experiment: Activity of human recombinant CYP2D6 assessed as metabolite formation at 50 uM in presence of NADPH by LC-MS/MS method; format: ADME; details: recombinant enzyme
Chain of Cytochrome P450 2D6 (P10635 whole entry): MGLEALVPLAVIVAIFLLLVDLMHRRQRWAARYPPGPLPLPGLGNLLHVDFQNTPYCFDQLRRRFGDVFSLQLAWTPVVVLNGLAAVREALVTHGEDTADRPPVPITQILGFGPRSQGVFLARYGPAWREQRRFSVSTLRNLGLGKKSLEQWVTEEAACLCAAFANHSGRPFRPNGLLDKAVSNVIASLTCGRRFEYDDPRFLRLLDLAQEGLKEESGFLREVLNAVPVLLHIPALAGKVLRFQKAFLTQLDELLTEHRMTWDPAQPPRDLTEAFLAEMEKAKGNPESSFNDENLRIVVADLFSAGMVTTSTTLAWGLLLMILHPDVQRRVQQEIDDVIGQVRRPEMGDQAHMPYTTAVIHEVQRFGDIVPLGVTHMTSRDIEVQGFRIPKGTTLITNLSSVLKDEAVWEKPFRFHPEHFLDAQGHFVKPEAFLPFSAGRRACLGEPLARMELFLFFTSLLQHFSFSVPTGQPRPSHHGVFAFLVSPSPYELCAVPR

Liver microsome [10] = experiment: Drug metabolism in NADPH supplemented rat liver microsomes fraction assessed as 3-((1H-imidazol-2-yl)methyl)-6-tert-butyl-2,4-dimethylphenol formation at 50 uM after 1 hr by LC-MS/MS method; format: ADME
Liver microsome [11] = experiment: Drug metabolism in NADPH supplemented human liver microsomes fraction assessed as 3-((1H-imidazol-2-yl)methyl)-6-(1-hydroxy-2-methylpropan-2-yl)-2,4-dimethylphenol formation at 50 uM after 1 hr by LC-MS/MS method; format: ADME

Retention_time [1]: 12.2 min | Drug metabolism (Liver microsome [2]): metabolite_detected | Drug metabolism (Cytochrome P450 2E1): metabolite_not_detected | Drug metabolism (Cytochrome P450 2C19 [3]): metabolite_detected | Drug metabolism [4]: metabolite_detected | Drug metabolism [5]: metabolite_detected | Drug metabolism (Cytochrome P450 2C19 [6]): metabolite_detected | Drug metabolism [7]: metabolite_detected | Drug metabolism [8]: metabolite_detected | Drug metabolism (Cytochrome P450 2C8): metabolite_not_detected | Drug metabolism (Cytochrome P450 1A2): metabolite_not_detected | Drug metabolism (Liver microsome [9]): metabolite_detected | Drug metabolism (Cytochrome P450 2D6): metabolite_not_detected | Drug metabolism (Liver microsome [10]): metabolite_detected | Drug metabolism (Liver microsome [11]): metabolite_detected
SMILES: Cc1cc(C(C)(C)C)c(O)c(C)c1CC1=NCCN1 [OXYMETAZOLINE]
